Measurements: patent US7049321B2, “Methods and pharmaceutical compositions for treatment of central and peripheral nervous system disorders and compounds useful therefor” (Israel Institute for Biological Research, priority 2002, dated 2006)

How the values were obtained:
[1] = test system: rat primary hippocampal cell cultures; experiment: APPs secretion in rat primary hippocampal cell cultures; assay type: cell-based; details: 100 μm; culture not given
[2] = test system: cells transfected with M1 mAChR; experiment: Apoptosis (DAPI, TUNEL, FACS) after starvation, Aβ or H2O2; assay type: cell-based, rat; details: for Apoptotic cell death induced by starvation: 24 hrs starvation; for H2O2-induced apoptosis: H2O2 25 and 50 μm; for Aβ-induced apoptosis: β-A25-35 or β-A1-42 (25 μM), M1 transfected cells; for Apoptotic population after β-amyloid (FACS): β-Amyloid 25–35 or 1–42
Method: Several experiments were performed in serum-free medium.
Cells were grown and treated on glass coverslips.
Apoptotic cells were identified as the pre-G1 phase.

[3] = test system: mice with closed head injury; experiment: Closed head injury in mice, neurological severity score; assay type: in vivo; details: for Balance test (beam walk): 80% in control
Method: Closed head injury (CHI) was induced in mice as described in Chen et al, J Neurotrauma, 15: 231–237, 1998. Neurological severity scores (NSS) were assessed using a battery of 10 parameters (10=worst outcome, 0=normal function). The compounds tested (1 mg compound/kg body weight) vs. placebo-treated animals were injected ip 5 min after CHI vs. placebo-treated animals. Treated mice were evaluated at 1 h, to determine the severity of injury, and at 24 and 48 h to determine recovery. The NSS was as follows: 1. […] 2.

[4] = test system: C57BL6J mice; experiment: Morris water maze in normal hippocampus mice; assay type: in vivo; details: for Training, escape latency: 0.5 and 1 mg/kg i.p. (rivastigmine, nicotine 1 mg/kg); for Training, path length: AF150(S) only the higher dose; for Reversal test, swimming speed: AF150(S)-0.5 mg/kg, AF267B-1 mg/kg, rivastigmine, nicotine
Method: Each group of mice was randomly divided into 7 treatment groups (n=12-14/group). […] All tested compounds and saline were administered once a day for 4 days before starting the behavioral testing, and then for the duration of the 5-day experiment, 30 minutes before testing.
Training: Each mouse was trained for four consecutive days, four trials (one block) per day, in which the platform position remained constant and was located in the center of the southeast quadrant of the pool. Within each block of four trials, each mouse started at each of the starting locations, but the sequence of locations was randomly selected. A trial consisted of placing a mouse by hand into the water facing the wall of the pool at one of four starting locations, north, south, east or west, around the pool's perimeter. Escape latency (the time to find the platform), path length (the distance traveled by the mouse) and speed (the swimming rate of the mouse) were recorded on each trial by the monitoring system.
For each mouse, the path length, escape latency, and swimming speed of the four trials on each of the 4 training days were grouped into blocks (one block for each day). […] Specific comparisons were performed, using the simple main effects contrasts acalysis, which is specifically suited for testing significant interactions.
Transfer test. During trial No. 17, on the fourth day, the platform was entirely removed from the pool (a probe trial). In this trial, the mouse was placed into the water for a limited period (30 s), and its spatial bias was measured by recording the relative distribution of escape latency and path length over the four quadrants of the pool.
Reversal test. During trials 18–21, on the fifth day, the platform position was changed to the northwest quadrant, opposite to the training quadrant. Thus, during reversal learning, the platform location was moved relative to the configuration of objects within the room, but the pool occupied the same place within the room throughout the entire experiment. Testing of the rats and measures taken were the same as in training.
For each mouse, the escape latency, path length and swimming speed of the reversal test (trials No. 18–21) were grouped into one block.

[5] = test system: cells transfected with M1 mAChR; experiment: Apoptosis (DAPI, TUNEL, FACS) after starvation, Aβ or H2O2; assay type: cell-based, rat; details: for Apoptosis after Aβ or H2O2 (DAPI): DAPI staining
[6] = test system: tau proteins; experiment: tau phosphorylation, AT8 immunoblot; assay type: cell-based; details: 100 μM; to the control level
Text: Following the experimental design of Sadot et al., J. Neurochem. […] By linking an M1 agonist to an antioxidant moiety tau phophorylation may be decreased, providing a new therapeutic strategy in a variety of CNS disease states due to combined damage due to oxidative stress and tau hyperphosphorylation.

[7] = target: T1, M1 mAChR (Homo sapiens, UniProt P11229); experiment: Arachidonic acid (AA) release, M1; assay type: cell-based
T1 construct: expressed in transfected cells

[8] = target: T2, rat M1 mAChR (Rattus norvegicus, UniProt P08482); experiment: PI turnover, rat M1 mAChR; assay type: cell-based
T2 construct: expressed in transfected cells; host or cells: probably the rat pheochromocytoma cells transfected with M1 mAChR

[9] = test system: aged rats; experiment: Morris water maze in aged rats; assay type: in vivo, Sprague-Dawley rats; details: for Reversal learning: AF267B 1 mg/kg, AF292 1 and 0.5 mg/kg, po
Text: Old (22–24 months old) and young (three months old) Sprague-Dawley rats had been tested in the MWM.

[10] = CNS safety: general observation and Irwin test in rats; assay type: in vivo, rat
Method: AF292 was evaluated in rodents for possible effects on general behavior and other CNS related pharmacological effects. […] No behavioral or physical signs were observed 24 hours after administration. All rats were retained for 14 days, and throughout this retention period all rats appeared normal.

[11] = Metabolic stability, monkey liver microsomes; assay type: in vitro ADME; details: read-out: Metabolic Stability T1/2
Method: (§1) The metabolic stability of AF292 was evaluated by monitoring its disappearance while incubated with rat, […], monkey, and human hepatic microsomes. Testosterone, and propranolol were run as assay controls.

[12] = Metabolic stability, human liver microsomes; assay type: in vitro ADME; details: read-out: Metabolic Stability T1/2
Method: as §1

[13] = Protein binding, PBS; assay type: in vitro ADME; details: 10 μM
Method: (§2) Protein binding studies were carried out in human plasma, α1-glycoprotein, human serum albumin (HSA), and Dulbecco's Phosphate Buffered Saline (PBS). AF292 was added to a final concentration of 10 μM. […] (μM) and in human […] (AGP), (see Table 1).

[14] = test system: Human α-glycoprotein (AGP); experiment: Protein binding, human α-glycoprotein; assay type: in vitro ADME; details: 10 μM
Method: as §2

[15] = Pharmacokinetic study in dogs; assay type: in vivo; details: beagle, dog, plasma
Text: The results of the PK profile of AF292 in rats and Beagle dogs (overnight fasting; drug administered in water solution; gavage) are listed in Table 1.

[16] = 1 mg/kg ip 5 min after CHI, 1 h
[17] = oral, Dogs, extrapolated for 5 mg/kg

T1 sequence (P11229 whole entry): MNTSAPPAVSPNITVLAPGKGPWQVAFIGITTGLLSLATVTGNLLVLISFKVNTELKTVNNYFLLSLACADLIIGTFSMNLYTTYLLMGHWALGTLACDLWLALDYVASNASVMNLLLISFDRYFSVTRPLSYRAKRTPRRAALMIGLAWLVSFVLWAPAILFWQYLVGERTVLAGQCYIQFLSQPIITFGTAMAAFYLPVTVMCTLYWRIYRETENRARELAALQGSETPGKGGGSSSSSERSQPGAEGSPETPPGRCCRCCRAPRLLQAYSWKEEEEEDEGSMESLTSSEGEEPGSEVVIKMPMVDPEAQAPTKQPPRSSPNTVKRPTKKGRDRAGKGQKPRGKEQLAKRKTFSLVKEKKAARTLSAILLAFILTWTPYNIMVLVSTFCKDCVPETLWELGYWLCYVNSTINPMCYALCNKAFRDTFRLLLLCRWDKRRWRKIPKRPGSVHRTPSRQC
T2 sequence (P08482 whole entry): as the sequence (P11229 whole entry) above, with A5V, T254S, P309S, R320K, A337G, I413V counted along it

In the case of CC1=NCC2(CCN(C)CC2)S1 [AF150(S), 2,8-Dimethyl-1-thia-3,8-diaza-spiro[4.5]dec-2-ene], the “APPs secretion, fold over control (agonists vs CCh)” value [1] is reported as 2.8 fold, the “Apoptotic death during starvation (FACS)” value [2] is reported as “protected cells from apoptotic death” and the “Apoptotic cell death induced by starvation” value [2] is reported as “significantly protect”. The H2O2-induced apoptosis [2] was “prevented H2O2-induced apoptosis”, the Aβ-induced apoptosis [2] was “prevented” and the “Apoptotic population after β-amyloid (FACS)” value [2] was “reduced the apoptotic population significantly”. For the same compound, the NSS [3, 16] was 8.00+/−0.21, the NSS ([3]; 1 mg/kg ip, 24 h) was 4.30+/−0.26 and the NSS ([3]; 1 mg/kg ip, 48 h) was 2.90+/−0.3. The “Training, escape latency” value [4] was “increased the escape latencies”, the “Reversal test, escape latency” value ([4]; AF150(S) 0.5 mg/kg) was “impaired the escape latency” and the “Training, path length” value [4] was “impaired the path length”. The “Reversal test, swimming speed” value [4] was “significantly decreased”, the “Training, swimming speed” value ([4]; mouse, in vivo) was “impaired the swimming speed” and the “Transfer test, spatial bias” value ([4]; mouse, in vivo) was “partial spatial bias”. For the same compound, the “Apoptosis, TUNEL” value ([5]; 100 μM, 25 μM β-amyloid 25–35) was “able to block the apoptosis” and the “Apoptosis after Aβ or H2O2 (DAPI)” value [5] was “protect these cells from apoptosis”.

In the case of CC[C@@H]1SC2(CCN(C)CC2)NC1=O [AF267B, (S)-2-ethyl-8-methyl-1-thia-4,8-diaza-spiro[4.5]decan-3-one], the “APPs secretion, fold over control (agonists vs CCh)” value [1] is reported as 2.8 fold, the “Apoptotic death during starvation (FACS)” value [2] is reported as “protected cells from apoptotic death” and the “Apoptotic cell death induced by starvation” value [2] is reported as “significantly protect”. The H2O2-induced apoptosis [2] was “prevented H2O2-induced apoptosis”, the Aβ-induced apoptosis [2] was “prevented” and the “Apoptotic population after β-amyloid (FACS)” value [2] was “reduced the apoptotic population significantly”. For the same compound, the “tau phosphorylation (AT8)” value [6] was “induce dephosphorylation of tau proteins”, the “AA release vs. CCh, M1 mAChR” value [7] was 100% and the “PI turnover vs. CCh, rat M1 mAChR” value [8] was “PI, rat M1 mAChR: 75%”. For the same compound, the NSS [3, 16] was 7.89+/−0.26, the NSS ([3]; 1 mg/kg ip, 24 h) was 3.67+/−0.24 and the NSS ([3]; 1 mg/kg ip, 48 h) was 2.89+/−0.26. The “Balance test (beam walk)” value ([3]; 24 h (3 cm)) was 22%, the “Balance test (beam walk)” value ([3]; 48 h (2 cm)) was 33% and the “Training, escape latency” value [4] was “did not significantly affect”. For the same compound, the “Training, path length” value [4] was “neither AF267B nor rivastigmine had any effect”, the “Reversal test, swimming speed” value [4] was “significantly decreased” and the “Training, swimming speed” value ([4]; mouse, in vivo) was “no such effect”. For the same compound, the Learning ([9]; 1 mg/kg) was “tendency for improvement”, the Reversal learning [9] was “improved significantly the reversal learning” and the Swimming ability ([9]; rat, in vivo) was “no significant effect on the swimming ability”. For the same compound, the “IRWIN TEST, duration of signs” value ([10]; 100 mg/kg) was “duration 3–6 hrs.)”, the “IRWIN TEST, onset of signs” value ([10]; 100 mg/kg) was 0.5 h and the “IRWIN TEST, signs” value ([10]; 100 mg/kg p.o.) was 100 mg/kg: abnormalities of carriage, and apathy, decreased corneal reflex, diarrhea, and reduced grooming, increased urination, and salivation, lacrimation & and chromodacryorrhea, reduced locomotor and activity, passivity, decreased respiration, and reduced startle response. For the same compound, the “IRWIN TEST, gross behavior & physiological state” value ([10]; 1 & 10 mg/kg, p.o.) was 1 & 10 no effect on gross behavior, the “Chromodacryorrhea, dose” value ([10]; p.o.) was “Chromodacryorrhea: 100 mg/kg, p.o” and the “Convulsion, dose” value ([10]; p.o.) was “Convulsion: 50 mg/kg, p.o”. For the same compound, the “Gnawing, dose” value ([10]; p.o.) was “Gnawing; 50 mg/kg, p.o”, the “Hypothermia, dose” value ([10]; p.o.) was “Hypothermia: 50 mg/kg, p.o” and the “Lacrimation, dose” value ([10]; p.o.) was “Lacrimation: 50 mg/kg, p.o”. For the same compound, the “Mydriasis, dose” value ([10]; p.o.) was “Mydriasis: 25 mg/kg, p.o”, the “Salivation, dose” value ([10]; p.o.) was “Salivation: 40 mg/kg, p.o” and the “Sedation, dose” value ([10]; p.o.) was “Sedation: 100 mg/kg, p.o”. The “Dose at which salivation and lacrimation begin” value ([10]; po, first hour) was “about 40 mg/kg”, the half-life [11] was 0.45 h and the half-life [12] was over 1.67 h. For the same compound, the “Protein Binding” value [13] was “PBS = 0%”, the “Protein Binding” value [14] was “AGP = 5.7%” and the AUC(0-inf) [15, 17] was 2760 ng·h/mL. For the same compound, the Cmax [15, 17] was 1080 ng/mL, the AUC(0-inf) ([15]; po, Dogs., 1 mg/kg) was 552 ng·h/mL and the Cmax ([15]; po, Dogs., 1 mg/kg) was 257 ng/mL. The MRT ([15]; po, Dogs., 1 mg/kg) was 1.96 h, the Tmax ([15]; po, Dogs., 1 mg/kg) was 0.58 to 0.75 h and the half-life ([15]; po, Dogs., 1 mg/kg) was 1.33 h. The “Apoptosis after Aβ or H2O2 (DAPI)” value [5] was “protect these cells from apoptosis”.

For CC[C@@H]1SC2(CCNCC2)NC1=O [AF292, (S)-2-Ethyl-1-thia-4,8-diaza-spiro[4.5]decan-3-one], the “tau phosphorylation (AT8)” value [6] was “induce dephosphorylation of tau proteins”, the “AA release vs. CCh, M1 mAChR” value [7] was over 88% and the “PI turnover vs. CCh, rat M1 mAChR” value [8] was “PI, rat M1 mAChR; 50%”. For the same compound, the Reversal learning [9] was “did not reach significance”, the “Probe trial, memory” value ([9]; both doses (1 and 0.5 mg/kg, po)) was “tendency for partial spatial bias” and the “Physical or behavioral signs (Irwin test)” value ([10]; 1, 10, 30, 60, 100 mg/kg, p.o.) was “No significant physical or behavioral signs”. The half-life [11] was 1.23 h, the half-life [12] was over 1.67 h and the “Protein Binding” value [13] was 0% and PBS = 0%. For the same compound, the “Protein Binding” value [14] was 0%, the AUC(0-inf) ([15]; po, Dogs, 5 mg/kg) was 4650 ng·h/mL and the Cmax ([15]; po, Dogs, 5 mg/kg) was 1190 ng/mL. The MRT ([15]; po, Dogs, 5 mg/kg) was 4.85 h, the Tmax ([15]; po, Dogs, 5 mg/kg) was 0.8 h and the half-life ([15]; po, Dogs, 5 mg/kg) was 2.04 h.
